Assay results from patent publication US6153604A, “Therapeutic substituted guanidines” (Cambridge NeuroScience, Inc., priority 1995, dated 2000).
Where a name gives a salt, the structure may show the parent alone.

Tests used:
[1] = system: NMDA-induced excitotoxic damage to the central nervous system; test: In vivo assay for protection against NMDA-induced excitotoxic damage to the central nervous system; parameters: species or system rat (Day 7 neonatal); conditions: Rattus norvegicus, ip, 120 h, intraperitoneal; for inhibition in vivo at 60 µmol/kg: dose 60 μmol/kg; for ED80: 15 minutes after intrastriatal NMDA, neonatal rats, read-out: ED80 (dose that provides 80% of the maximum protection)
Procedure: In vivo assay for protection against NMDA-induced excitotoxic damage to the central nervous system.
The in vivo potency of compounds of the present invention is exemplified by data summarized in Table II and obtained pursuant to the following protocol. Day 7 neonatal rats were anesthetized with metophane inhalation anesthetic for 4-6 minutes, inserted into a stereotaxic apparatus and injected intrastriatally with 0.5 μl of 50 mM NMDA (N-methyl-D-aspartate). 15 minutes after the NMDA injection, the rat pups were injected intraperitoneally with 10, 30 or 60 μmol/kg of the NMDA antagonist of the structure specified in Table II Animals were returned to their mother and watched for signs of distress (e.g., respiratory depression). After five days, the animals were anesthetized with CO2 and then decapitated; their brains were removed and weighed to determine the degree of neuroprotection. Because NMDA injection results in a retardation of brain growth (including necrosis), effects can be measured gravimetrically in terms of the weights of injected and non-injected hemispheres. Two groups of rat pups were used at each of three doses of a compound to generate a neuroprotection dose-response curve. The chemical structure of each of the tested compounds is specified below with the general formula of the compounds shown at the top of Table II with particular substituent groups specified within that Table. Table II discloses 1) the ED80 for each tested compound, i.e., the dose of a compound that provides 80% of the maximum protection against damage to the central nervous system; and 2) the percent (%) maximum protection against damage to the central nervous system provided by the indicated dose expressed as μmol per kilogram bodyweight of the test subject.

sigma receptor = test: Sigma receptor binding assay ([3H]DTG, guinea pig brain membrane homogenates); conditions: displacement of [3H]DTG, guinea pig brain membranes
Procedure: Sigma Receptor Binding Assay
Briefly, frozen whole guinea-pig brains (Biotrol, Indianapolis, Ind.) were homogenized in 10 volumes (w/v) of ice-cold 320 mM sucrose using a Brinkman polytron. The homogenate was centrifuged at 1,000×g for 20 minutes at 4° C. The supernatant was centrifuged at 20,000×g for 20 minutes at 4° C. The resulting pellet was resuspended in 10 initial volumes of 50 mM Tris/HCl buffer at pH 7.4 and centrifuged at 20,000×g for 20 minutes at 4° C. The resulting pellet was resuspended in 5 initial volumes ice-cold 50 mM Tris/HCl (pH 7.4), and the final volume was adjusted to yield a protein concentration of 3 mg/ml. Aliquots of 20-ml were stored at -70° C. until used, with no detectable loss of binding.
The protein concentration in the 1-ml final incubation volume was 800 μg/ml, corresponding to 32 mg of brain tissue (original wet weight) and to a tissue concentration within the linear range for specific binding. […] Incubations were terminated after 90 minutes at room temperature by addition of 4 ml of ice-cold 50 mM Tris/HCl (pH 7.4) and rapid filtration of the membrane suspension through Whatman GF/B glass-fiber filters under vacuum, using a 48-well cell harvester (Brandel). The filters were washed 2 times with 4 ml of 50 mM Tris/HCl (pH 7.4). […] IC50 values were determined by non-linear regression analysis.

PCP receptor = PCP receptor radioligand binding assay ([3H]MK-801, rat brain membranes); conditions: read-out: [3H-MK801] IC50; displacement of [3H]MK-801, rat brain membranes
[2] = read-out: % maximum protection per dose

Structure (SMILES) | inhibition in vivo at 60 µmol/kg [1, 2] | ED80 [1] | inhibition in vivo at 30 µmol/kg ([1]; dose 30 μmol/kg, read-out: % maximum protection per dose) | IC50 (sigma receptor) | IC50 (PCP receptor)
CCc1cccc(N(C)C(=N)Nc2cc(Cl)ccc2Cl)c1 [Cmpd. No. 1 (Table II), N-(3-ethylphenyl)-N-methyl-N'-(2,5-dichlorophenyl)guanidine hydrochloride] | 88.8% | 36.4 µmol/kg |  |  | 
CCc1cccc(N(C)C(=N)Nc2cc(Br)ccc2Br)c1 [Cmpd. No. 2 (Table II), N-(3-ethylphenyl)-N-methyl-N'-(2,5-dibromophenyl)guanidine hydrochloride] | 93.8% | 13.4 µmol/kg |  |  | 
CCc1cccc(NC(=N)Nc2cc(C(F)(F)F)ccc2F)c1 [Cmpd. No. 3 (Table II), N-(3-Ethylphenyl)-N'-(2-fluoro-5-trifluoromethylphenyl)guanidine hydrochloride] | 76.6% | 15.2 µmol/kg |  |  | 
CCc1cccc(N(C)C(=N)Nc2cc(CC)ccc2Cl)c1 [Cmpd. No. 4 (Table II), N-(3-Ethylphenyl)-N-methyl-N'-(2-chloro-5-ethylphenyl)guanidine hydrochloride] | 77.8% | 19.8 µmol/kg |  |  | 
CCc1ccc(Cl)c(N(C)C(=N)Nc2cccc3ccccc23)c1 [Cmpd. No. 5 (Table II), N-(1-Naphthyl)-N'-(2-chloro-5-ethylphenyl)-N'-methylguanidine hydrochloride] | 92.2% | 22.3 µmol/kg |  |  | 
Cc1ccc(C)c(N(C)C(=N)Nc2cccc3ccccc23)c1 [Cmpd. No. 7 (Table II), N-(1-Naphthyl)-N'-(2,5-dimethylphenyl)-N'-methylguanidine hydrochloride] |  | 22.5 µmol/kg | 86% |  | 
N=C(Nc1cc(C(F)(F)F)ccc1F)Nc1cccc2ccccc12 [Cmpd. No. 8 (Table II), N-(1-Naphthyl)-N'-(2-fluoro-5-trifluoromethylphenyl)guanidine hydrochloride] | 96% | 28.8 µmol/kg |  |  | 
CSc1ccc(Cl)c(NC(=N)Nc2cccc3ccccc23)c1 [Cmpd. No. 9 (Table II), N-(1-Naphthyl)-N'-(2-chloro-5-thiomethylphenyl)guanidine hydrochloride] | 92.7% | 10.8 µmol/kg |  |  | 
N=C(Nc1cc(C(F)(F)F)ccc1Br)Nc1cccc2ccccc12 [Compd. No. 41 (Table I), N-(1-Naphthyl)-N'-(2-bromo-5-trifluoromethylphenyl)guanidine hydrochloride] |  |  |  | 49.6 nM | 51.1 nM
CSc1ccc(C(F)(F)F)cc1NC(=N)Nc1cccc2ccccc12 [Compd. No. 42 (Table I), N-(1-Naphthyl)-N'-(2-thiomethyl-5-trifluoromethylphenyl)guanidine hydrochloride] |  |  |  | 418 nM | 170 nM
CCc1ccc(Cl)c(NC(=N)Nc2cccc3ccccc23)c1 [Compd. No. 44 (Table I), N-(1-Naphthyl)-N'-(2-chloro-5-ethylphenyl)guanidine hydrochloride] |  |  |  | 4.94 nM | 20.6 nM
CCc1cccc(NC(=N)Nc2cccc3ccccc23)c1 [Compd. No. 45 (Table I)] |  |  |  | 53.8 nM | 39 nM
CSc1ccc(Cl)c(NC(=N)Nc2cccc3ccccc23)c1 [Compd. No. 46 (Table I), N-(1-Naphthyl)-N'-(2-chloro-5-thiomethylphenyl)guanidine hydrochloride] |  |  |  | 25.4 nM | 43 nM
CSc1cccc(NC(=N)Nc2cccc3ccccc23)c1 [Compd. No. 47 (Table I)] |  |  |  | 27 nM | 124 nM
Cc1ccc(Cl)c(NC(=N)Nc2cccc3cccnc23)c1 [Compd. No. 48 (Table I), N-(8-Quinolinyl)-N'-(2-chloro-5-methylphenyl)guanidine hydrochloride] |  |  |  | 989 nM | 32 nM
CN(C(=N)Nc1cccc2ccccc12)c1cc(Cl)ccc1Cl [Compd. No. 50 (Table I), N-(1-Naphthyl)-N'(2,5-dichlorophenyl)-N'-methylguanidine hydrochloride] |  |  |  | 1320 nM | 62 nM

Structure (SMILES) | inhibition in vivo at 60 µmol/kg [1, 2] | ED80 [1] | inhibition in vivo at 30 µmol/kg ([1]; dose 30 μmol/kg, read-out: % maximum protection per dose) | IC50 (sigma receptor) | IC50 (PCP receptor)
CN(C(=N)Nc1cccc2ccccc12)c1cccc(Cl)c1 [Compd. No. 52 (Table I)] |  |  |  | 2980 nM | 107 nM
Cc1ccc(C)c(N(C)C(=N)Nc2cccc3ccccc23)c1 [Compd. No. 54 (Table I), N-(1-Naphthyl)-N'-(2,5-dimethylphenyl)-N'-methylguanidine hydrochloride] |  |  |  | 1550 nM | 79 nM
Cc1ccc(Cl)c(N(C)C(=N)Nc2cccc3ccccc23)c1 [Compd. No. 55 (Table I), N-(1-Naphthyl)-N'-(2-chloro-5-methylphenyl)-N'-methylguanidine hydrochloride] |  |  |  | 2420 nM | 41 nM
CCc1ccc(Cl)c(N(C)C(=N)Nc2cccc3ccccc23)c1 [Compd. No. 57 (Table I), N-(1-Naphthyl)-N'-(2-chloro-5-ethylphenyl)-N'-methylguanidine hydrochloride] |  |  |  | 136 nM | 32.8 nM
CCc1cccc(N(C)C(=N)Nc2cccc3ccccc23)c1 [Compd. No. 58 (Table I)] |  |  |  | 2540 nM | 37.5 nM
CCc1cccc(N(C)C(=N)Nc2cc(SC)ccc2Br)c1 [Compd. No. 59 (Table I)] |  |  |  | 240 nM | 3.19 nM
CSc1cccc(N(C)C(=N)Nc2cc(SC)ccc2Cl)c1 [Compd. No. 60 (Table I), N-(3-Methylthiophenyl)-N-methyl-N'-(2-chloro-5-methylthiophenyl)guanidine hydrochloride] |  |  |  | 480 nM | 2.43 nM
CCc1ccc(Cl)c(NC(=N)N(C)c2cccc(SC)c2)c1 [Compd. No. 61 (Table I), N-(3-Methylthiophenyl)-N-methyl-N'-(2-chloro-5-ethylphenyl)guanidine hydrochloride] |  |  |  | 178 nM | 12.5 nM
CSc1cccc(N(C)C(=N)Nc2cc(Cl)ccc2Cl)c1 [Compd. No. 62 (Table I), N-(3-Methylthiophenyl)-N-methyl-N'-(2,5-dichlorophenyl)guanidine hydrochloride] |  |  |  | 130 nM | 59.3 nM
CSc1ccc(Cl)c(NC(=N)N(C)c2cccc(C(F)(F)F)c2)c1 [Compd. No. 66 (Table I), N-(3-Trifluoromethylphenyl)-N-methyl-N'-(2-chloro-5-methylthiophenyl)guanidine hydrochloride] |  |  |  | 421 nM | 8.47 nM
CCc1ccc(Cl)c(NC(=N)N(C)c2cccc(C(F)(F)F)c2)c1 [Compd. No. 67 (Table I), N-(3-Trifluoromethylphenyl)-N-methyl-N'-(2-chloro-5-ethylphenyl)guanidine hydrochloride] |  |  |  | 200 nM | 77 nM
CSc1ccc(Br)c(NC(=N)N(C)c2cccc(C(F)(F)F)c2)c1 [Compd. No. 69 (Table I), N-(3-Trifluoromethylphenyl)-N-methyl-N'-(2-bromo-5-methylthiophenyl)guanidine hydrochloride] |  |  |  | 631 nM | 5.55 nM
CCc1ccc(Br)c(NC(=N)N(C)c2cccc(C(F)(F)F)c2)c1 [Compd. No. 70 (Table I), N-(3-Trifluoromethylphenyl)-N-methyl-N'-(2-bromo-5-ethylphenyl)guanidine hydrochloride] |  |  |  | 166 nM | 20.4 nM
CN(C(=N)Nc1cc(Br)ccc1Br)c1cccc(C(F)(F)F)c1 [Compd. No. 71 (Table I), N-(3-Trifluoromethylphenyl)-N-methyl-N'-(2,5-dibromophenyl)guanidine hydrochloride] |  |  |  | 224 nM | 34 nM
CCc1cccc(NC(=N)Nc2cc(C(F)(F)F)ccc2F)c1 [Compound 5] |  |  |  | 14.8 nM | 98.9 nM
CSc1ccc(Cl)c(NC(=N)N(C)c2cccc3cccnc23)c1 [Compound 79] |  |  |  | 542 nM | 22.3 nM
